Legend:
[1] = test system: GFP expression; assay: DOX concentration required to induce GFP expression in infected cells (fluorescent microscopy); assay type: cell-based; conditions: within 48 hours; cells infected with viral particles from pHReGFPO2/EFtet/blas
Procedure: To determine the DOX concentration required to induce gene expression in the single vector system, different concentration of DOX were added to cells infected with viral particles derived from pHReGFPO2/EFtet/blas (titer 2.5×10^6/ml). GFP expression was monitored by fluorescent microscopy.

[2] = test system: transgenic mice; assay: Induction of eGFP expression in transgenic mice by drinking water containing DOX; assay type: in vivo, mouse
Procedure: To determine whether the inducible constructs could induce eGFP expression in vivo, the transgenic mice were fed drinking water containing 100 μg/ml DOX. GFP expression in the body (paw) and PBMCs was analyzed by fluorescent microscopy and FACS analysis before and after the transgenic mice were fed DOX.
A previous study reported that a DOX concentration of 0.1-10 mg/ml in the drinking water of transgenic mice containing a tet regulatable system, was required for inducible gene expression within the animal. To determine the concentration of DOX required for inducible expression of GFP in the transgenic mice described above, the F1 mice from CAG-founder 6# were divided into the four groups which were fed drinking water containing different concentrations of DOX including 0 ug/ml (Group 1), 4 ug/ml (Group 2), 20 ug/ml (Group 3), and 100 ug/ml (Group 4). GFP expression was monitored by visualizing GFP expression in the fingers of the transgenic mouse under UV light after 0, 1, 2, 3, 5 and 18 days of feeding the mice DOX. The intensity of the fluorescent signal in the fingers of the tested mice over the course of the experiment was observed. […] The intensity of the fluorescent signal for Groups 3 and 4 expressed their highest level of GFP expression after 5 days of DOX feeding. In addition, 4 ug/ml of DOX fed to the mice of Group 2 mice was sufficient to induce GFP expression, however the induction was delayed and the intensity was relatively weak as compared to Group 3 and 4 mice. Also of note is that the intensity of a fluorescent signal appeared in a does-dependent manner.
Using the FACS, positive blood cells expressing GFP were isolated and quantified. […] For all mice of Groups 2, 3 and 4, both the number and intensity of GFP expressing cells increased after the mice were fed DOX.
To determine the pharmacokinetics of DOX, 43% of the blood cells expressed GFP from Group 4 mice (after 18 days of DOX feeding), this level was used to set the threshold of 100 percent induction.

[3] = test system: transgenic mice containing a tet regulatable system; conditions: previous study; cited from earlier work

## C[C@H]1c2cccc(O)c2C(O)=C2C(=O)[C@]3(O)C(O)=C(C(N)=O)C(=O)[C@@H](N(C)C)[C@@H]3[C@@H](O)[C@@H]21 [DOX, doxycycline]
[1]
  DOX sufficient to induce GFP expression: 15 ng
[2]; 20 ug/ml and 100 ug/ml DOX (Group 3 and Group 4)
  time of DOX feeding until mice began to express GFP: 1 days
[2]; 20 ug/ml and 100 ug/ml DOX (Groups 3 and 4)
  time of DOX feeding to highest level of GFP expression: 5 days
[2]; F1 mice from CAG-founder 6#, fingers under UV light, induction delayed, intensity relatively weak
  DOX concentration in drinking water sufficient to induce GFP expression: 4 µg/mL
[2]; Group 4 (100 ug/ml DOX), after 18 days of DOX feeding, FACS
  blood cells expressing GFP: 43%
[3]
  DOX concentration in the drinking water required for inducible gene expression: 0.1 to 10 mg/mL

Source: patent US20090210952A1, “Compositions and Methods Related to Controlled Gene Expression Using Viral Vectors” (priority 2005, published 2009)
